One data set deals with Aβ40. Description: Aβ-lowering MSD electrochemiluminescent assay of conditioned media from CHO cells expressing human APP (Aβ40). The data set is classed as cell-based. Here is the method: (§1) The activity of compounds in lowering the generation of Aβ40 and Aβ42, the most abundant forms of beta amyloid, from APP (amyloid precursor protein) was measured in an electrochemiluminescent (ECL) assay of conditioned media from chinese hamster ovary (CHO) cells stably expressing the human amyloid precursor protein (APP) reporter construct, hAPP-REPNL751 (Sughir, R. et al.; J. Biolog. Chem (1992) 267: 25602-25608). Aβ peptides were secreted at high levels into cell culture media by cells carrying the human APP transgene; compounds were tested for their capacity to modulate this production. The Aβ peptide in the conditioned medium was quantitated by a sandwich immunoassay with the MSD ECL detection system. Cell metabolism was measured using a 3-(4,5-dimethylthiazol-2-yl)-5-(3-carboxymethoxypheny)-2-(4-sulfophenyl)-2H-tetrazolium, inner salt (MTS) salt kit (which measures the mitochondrial activity of cells by the bioreduction of Owen's reagent). This assay consists of the following protocol:
(§2) 1. hAPP-REPNL751CHO cells were seeded into 96 well plates and incubated until about 60-70% confluence.
(§3) 2. Medium was removed, cells were washed, and fresh serum-free medium (Ultraculture) was put on cells.
(§4) 3. Compounds were diluted and then added to the cell medium.
(§5) 4. Cells were incubated, with compounds, for indicated times.
(§6) 5. Streptavidin coated Meso Scale Discover (MSD) plates (MSD standard MULTI-ARRAY® 96 plate, cat.# P11SA-1) were washed […] with TTBS (Tris-buffered saline, the TWEEN® 20 reagent).
(§7) 6. 20 μL conditioned medium were removed from the cells and added to the TTBS prewashed MSD plates.
(§8) 7. Standard curve dilutions of synthetic Aβ40 and Aβ42 were prepared and added to the MSD plates.
(§9) 8. A reagent mix was prepared in 1% MSD Blocker A (appropriate concentration of biotinylated 6E10 antibody, detection antibodies to Aβ40, Aβ42, and MSD ruthinylated tag antibody).
(§10) 9. 20 μL reagent mix was distributed to sample plate.
(§11) 10. Plates were incubated with shaking overnight at 4° C.
(§12) 11. Plates were washed 3× with TTBS.
(§13) 12. 150 μL read buffer was added per well (MSD® Read Buffer T, cat#R92TC-2, made 1× with distilled water).
(§14) 13. Plates were read in a MSD® plate reader within 2 hours.
(§15) Assays were accepted or rejected based upon specific performance criteria, including regression coefficient of standard curve, adequate signal to noise ratio, sample signals lying within the range of the standard curve, etc.: the specific parameters were established for each tissue type prior to performing an assay, and were included in the full analytical procedure.
(§16) Plate data from both assays (MTS and MSD® ELISA) were transferred into a Microsoft EXCEL® spreadsheet to determine the toxicity, and inhibition caused by the compounds. Standard curves of Aβ were generated using LSW™ toolbar Hill slope model 42, with 1/y weighting (general sigmoidal curve with Hill slope, a to d; y=(a−d)/(1+(x/c)̂b)+d). Inhibition data were expressed as a percent of the average of the Aβ values in the vehicle treated wells (all values are background subtracted), using LSW™ toolbar Hill Slope model 68 (ligand-receptor binding/sigmoidal, with Hill slope and Bmax to 0; y=Bmax*(1−(x̂n/(K̂n+x̂n))), after raw values were translated/transformed into absolute Aβ values utilizing the standard curve generated as described above (e.g. back calculate absolute Aβ values from the raw values utilizing standard curve). Onboard controls to verify assay performance were checked to assure that amyloid is within linear detection range of the assay, that cells were expressing correctly, and that the MSD itself was performing according to quality control (QC) standards.
(§17) % Inhibition>50% may be considered a positive response or an interesting result in this assay; EC50 determination were determined.
(§18) The beta amyloid inhibitory activity of compounds of formula (I) was determined using the MSD ECL assay. Inhibition of Notch processing was measured using the stable transfection reporter assay See, Table 1 below.

The next data set concerns Aβ42. Briefly: Aβ-lowering MSD electrochemiluminescent assay of conditioned media from CHO cells expressing human APP (Aβ42). It is filed as cell-based. The procedure:
as §1, §2, §3, §4, §5, §6, §7, §8, §9, §10, §11, §12, §13, §14, §15, §16, §17, §18

The subject of another data set is Notch. Description: Stable transfection Notch reporter assay (HES1-SEAP, P8H6 CHO-K1 cells). The note with it: CHO-K1. It is filed as cell-based.
Text: A concern with compounds that lower beta amyloid synthesis by targeting the γ-secretase enzyme is that this enzyme also is involved in the cleavage of other substrates besides APP especially the Notch substrate. […] Thus, a selectivity of APP cleavage over Notch cleavage is desired in order to avoid G.I. side effects. The activity of compounds in cleaving Notch can be measured in a whole cell functional Notch assay. This is an assay to determine the effects of compounds on the S3 (γ-secretase like) processing of Notch. […] SEAP transactivation is then detected by luminescent assay. The assay consists of the following protocol:
• (i) Materials: The P8H6 inducible stable cell line was derived from T-REX™ CHO-K1, stably expressing Tet repressor, Notch (pZX1) and HES1-SEAP (pZX2) reporter constructs. A Wallac 1450 Victor™ Luminescence Counter was used to measure luminescent signal. All other materials and reagents were of highest quality available and were all from commercial sources.
(ii) Construct Description: • pZX1: Mouse Notch1 with deleted extracellular domain cloned at Hind III/Xho I sites of pcDNA5/TO vector: Ampicillin Resistance for bacteria, hygromycin resistance for cells. • pZX2: Mouse HES1 promoter together with reporter gene SEAP cloned at Not I/Apa I sites of pcDNA3.1 with deletion of CMV promoter.
(iii) Procedure: • 1. P8H6 cells were grown in Ham's F12 complete growth media containing 10% FBS (reduced tetracycline), 2 mM of L-glutamine, 1 mg/mL of hygromycin, 1 mg/mL of the GENETICIN® antibiotic, 10 μg/mL of Blasticidin and 1% Penicillin-Streptomycin were supplemented with doxycline with final induction concentration of 0.2 μg/mL. The cells were seeded in 96-well tissue culture plate at 8000/well. • 2. Test compounds in 0.2% DMSO/25 mM HEPES buffer were diluted at final working concentration of 20 μM, 6.7 μM, 2.2 μM, 741 nM, 247 nM, 82 nM, 27 nM, 9 nM and 3 nM. Diluted compounds then were added to P8H6 cells in 96-well tissue culture plates. For vehicle samples, the same volume of 0.2% DMSO/25 mM HEPES buffer was added. • 3. Cells were incubated at 37° C., 5% CO2 for 48 hours. • 4. SEAP levels in the conditioned media were assessed using the Clontech GREATESCAPE™ SEAP Chemiluminescence detection kit according to the manufacturer's instruction. Briefly, 15 μL of conditioned media were mixed with 45 μL of the dilution buffer and incubated at 65° C. for 45 minutes. After cooling, assay buffer was added and the sample was incubated with the CSPD® substrate. • 5. Luminescence was measured in a Wallac 1450 VICTOR™ luminescence counter.
EC50 was the compound concentration that was estimated to provide a 50% reduction of maximum response in Notch induced SEAP levels. An EC50 from a given assay may only be used for averaging if it has met the following criteria: • 1. There is a lower dose in the assay which gives a % Notch Activity>60% (bracketing lower dose). • 2. There is a higher dose in the assay which gives a % Notch Activity<30% (bracketing higher dose), and the maximum inhibition is reached (e.g., a given compound might achieve 80% inhibition (% Notch activity is about 20%) over several doses, and therefore 20% would be considered the maximum inhibition.
Data were analyzed in Microsoft EXCEL® format. EC50 was calculated by LSW using sigmoidal inhibition from B0 to nsb model (model 59). Each assay plate contained a dose response curve for the reference compound 5-chloro-N-[(1S,2R)-2-ethyl-4,4,4-trifluoro-1-(hydroxymethyl)butyl]thiophene-2-sulfonamide. This compound is discussed in International Patent Publication No. WO 2004/092155. The following data is not shown in that publication.
as §18
A general note: Reporter assays use an easily measured gene product as a stand-in for the process of interest.

[1] abbreviates: CHO, beta amyloid assay reference compounds, read-out: EC50 Aβ40.
Setting [2] is: CHO, beta amyloid assay reference compounds, read-out: EC50 Aβ42.
[3] abbreviates: Notch assay reference compounds, read-out: EC50 (Notch assay).
[4] abbreviates: MSD electrochemiluminescent assay, hAPP-REPNL751 CHO cells, read-out: Aβ40 EC50 for inhibition of Aβ40.
[5] abbreviates: MSD electrochemiluminescent assay, hAPP-REPNL751 CHO cells, read-out: Aβ42 EC50 for inhibition of Aβ42.
Where [6] appears, read: stable transfection Notch reporter assay, 48 hours, read-out: Notch EC50 for inhibition of Notch.

pEC50: −log10 of the molar value. Read-outs that look alike come from different tables or passages of the source.

A word on the pEC50: it is the negative decadic logarithm of the EC50, by convention in mol/L. A word on the melting point: it is the temperature, or range, at which the solid turns liquid.

On to `CC[C@H](CC(F)(F)F)[C@@H](CO)NS(=O)(=O)c1ccc(Cl)s1` [5-chloro-N-[(1S,2R)-2-ethyl-4,4,4-trifluoro-1-(hydroxymethyl)butyl]thiophene-2-sulfonamide, reference compound], for which the negative logarithm of the EC50 (pEC50) with Aβ40 (setting [1]) was 8.22; with Aβ42 (setting [2]), 8.30; in the data set with Notch (setting [3]), 6.65.

Regarding `CC(C)[C@H](O)C(=O)N[C@@H](C)C(=O)N[C@@H]1C(=O)N(C)CCc2ccccc21` [(2S)-2-hydroxy-3-methyl-N-((1S)-1-methyl-2-{[(1S)-3-methyl-2-oxo-2,3,4,5-tetrahydro-1H-3-benzazepin-1-yl]amino}-2-oxoethyl)butanamide, reference compound], the pEC50 in the data set on Aβ40 (setting [1]) is 6.96; with Aβ42 (setting [2]) it was 7.10; with Notch (setting [3]), 7.17.

Take `O=S(=O)(NC(CO)C(c1ccccc1)C(F)(F)F)c1ccc(Cl)s1` (stereo not shown) [Example 1, 5-Chloro-N-[3,3,3-trifluoro-1-(hydroxymethyl)-2-phenylpropyl]thiophene-2-sulfonamide]: the negative-log EC50 (pEC50) in the data set with Aβ40 (setting [4]) was 6.15; in the data set on Aβ42 (setting [5]) it was 6.12; in the data set on Notch (setting [6]), less than 4.70.

Consider `O=S(=O)(N[C@H](CO)[C@@H](c1ccccc1)C(F)(F)F)c1ccc(Cl)s1` [Example 4, 5-Chloro-N-[(1S,2R)-3,3,3-trifluoro-1-(hydroxymethyl)-2-phenylpropyl]thiophene-2-sulfonamide], for which the pEC50 with Aβ40 (setting [4]) was 6.62; in the data set with Aβ42 (setting [5]) it was 6.71; in the data set with Notch (setting [6]) it was 5.43.

As for `O=S(=O)(N[C@H](CO)[C@@H](c1ccccc1)C(F)(F)F)c1ccc(Cl)cc1` [Example 6, 4-Chloro-N-[(1S,2R)-3,3,3-trifluoro-1-(hydroxymethyl)-2-phenylpropyl]benzenesulfonamide], the melting point was in the range of 129 to 131 °C. The pEC50 in the data set with Aβ40 (setting [4]) was 5.88. Moreover, the pEC50 in the data set with Aβ42 (setting [5]) is 5.72. Besides, the pEC50 in the data set with Notch (setting [6]) is less than 4.70.

Source of the values: patent publication US20090023801A1, “INHIBITORS OF BETA AMYLOID PRODUCTION” (Wyeth, priority 2007, published 2009).
